Tests used:
Test in all cases: whole plant or invertebrate
Format in all cases: in vivo
[1] = tested on: Cowpea Aphid (Aphis craccivora); settings: colonized cowpea plants sprayed, population reduction assessed after 24, 72 and 120 hours, read-out: mortality in comparison with untreated controls
Experimental: The active compound was dissolved at the desired concentration in a mixture of 1:1 (vol:vol) distilled water:acetone. The test solution was prepared at the day of use. Potted cowpea plants colonized with approximately 100 to 150 aphids of various stages were sprayed after the pest population had been recorded. Population reduction was assessed after 24, 72, and 120 hours.

[2] = tested on: vetch aphid (Megoura viciae); settings: foliar, 120 h, sprayed broad bean leaf disks, adult aphids, 5 days, read-out: mortality in comparison with untreated controls
Experimental: For evaluating control of vetch aphid (Megoura viciae) through contact or systemic means the test unit consisted of 24-well-microtiter plates containing broad bean leaf disks.
The compounds were formulated using a solution containing 75% v/v water and 25% v/v DMSO. Different concentrations of formulated compounds were sprayed onto the leaf disks at 2.5 μl, using a custom built micro atomizer, at two replications.
After application, the leaf disks were air-dried and 5 to 8 adult aphids were placed on the leaf disks inside the microtiter plate wells. The aphids were then allowed to suck on the treated leaf disks and were incubated at about 23±1° C. and about 50±5% relative humidity for 5 days. Aphid mortality and fecundity were then visually assessed.

[3] = tested on: Cotton Aphid (Aphis gossypii); settings: 120 h, infested cotton plants sprayed, after 5 days, read-out: mortality in comparison with untreated controls
Experimental: The active compounds were formulated in cyclohexanone as a 10′ 000 ppm solution supplied in 1.3 ml ABgene® tubes. These tubes were inserted into an automated electrostatic sprayer equipped with an atomizing nozzle and they served as stock solutions for which lower dilutions were made in 1:1 (vol:vol) water:aceton. A nonionic surfactant (Kinetic®) was included in the solution at a volume of 0.01% (v/v).
Cotton plants at the cotyledon stage were infested with aphids prior to treatment by placing a heavily infested leaf from the main aphid colony on top of each cotyledon. Aphids were allowed to transfer overnight to accomplish an infestation of 80-100 aphids per plant and the host leaf was removed. The infested plants were then sprayed by an automated electrostatic plant sprayer equipped with an atomizing spray nozzle. The plants were dried in the sprayer fume hood, removed from the sprayer, and then maintained in a growth room under fluorescent lighting in a 24-hr photoperiod at 25° C. and 20-40% relative humidity. Aphid mortality on the treated plants, relative to mortality on untreated control plants, was determined after 5 days.

[4] = tested on: green peach aphid (Myzus persicae); settings: 72 h, in aphid diet under artificial membrane, adult aphids, 3 days, read-out: mortality in comparison with untreated controls
Excerpt: For evaluating control of green peach aphid (Myzus persicae) through systemic means the test unit consisted of 96-well-microtiter plates containing liquid artificial diet under an artificial membrane.
The compounds were formulated using a solution containing 75% v/v water and 25% v/v DMSO. Different concentrations of formulated compounds were pipetted into the aphid diet, using a custom built pipetter, at two replications.
After application, 5 to 8 adult aphids were placed on the artificial membrane inside the microtiter plate wells. The aphids were then allowed to suck on the treated aphid diet and were incubated at about 23±1° C. and about 50±5% relative humidity for 3 days. Aphid mortality and fecundity was then visually assessed.

[5] = tested on: Silverleaf Whitefly (Bemisia Argentifolii); settings: 72 h, sprayed cotton plants, whitefly adults, 3 days after treatment, read-out: mortality in comparison with untreated controls
Experimental: The active compounds were formulated in cyclohexanone as a 10,000 ppm solution supplied in 1.3 ml ABgene® tubes. These tubes were inserted into an automated electrostatic sprayer equipped with an atomizing nozzle and they served as stock solutions for which lower dilutions were made in 1:1 (vol:vol) water:aceton. A nonionic surfactant (Kinetic®) was included in the solution at a volume of 0.01% (v/v).
Cotton plants at the cotyledon stage (one plant per pot) were sprayed by an automated electrostatic plant sprayer equipped with an atomizing spray nozzle. The plants were dried in the sprayer fume hood and then removed from the sprayer. Each pot was placed into a plastic cup and 10 to 12 whitefly adults (approximately 3 to 5 days old) were introduced. The insects were collected using an aspirator and 0.6 cm, nontoxic Tygon® tubing (R-3603) connected to a barrier pipette tip. The tip, containing the collected insects, was then gently inserted into the soil containing the treated plant, allowing insects to crawl out of the tip to reach the foliage for feeding. Cups were covered with a reusable screened lid (150-micron mesh polyester screen PeCap from Tetko, Inc.). […] Mortality was assessed 3 days after treatment, compared to untreated control plants.

C(=NOc1ccccc1)c1cccc(-c2cnc(-c3cccnc3)s2)n1 [Compound 1-10, 6-(2-Pyridin-3-yl-thiazol-5-yl)-pyridine-2-carbaldehyde-O-phenyloxime]
≥ 75%: mortality at 300 ppm [1] | mortality at 800 ppm [2]

CON=Cc1cccc(-c2cnc(-c3cccnc3)s2)n1 [Compound 1-1, 6-(2-Pyridin-3-yl-thiazol-5-yl)-pyridine-2-carbaldehyde-O-methyloxime]
≥ 75%: mortality at 300 ppm [3] | mortality at 800 ppm [4] | mortality at 300 ppm [1] | mortality at 800 ppm [2] | mortality at 300 ppm [5]

— patent US20150368236A1, “2-(PYRIDIN-3-YL)-5-HETARYL-THIAZOLE COMPOUNDS CARRYING AN IMINE OR IMINE-DERIVED SUBSTITUENT FOR COMBATING INVERTEBRATE PESTS” (BASF SE, priority 2012, published 2015)
